Experimental data reported in ChEMBL document CHEMBL4627327, “Antibacterial activity of singly and doubly modified salinomycin derivatives” (Bioorg Med Chem Lett, 2020).
Values after ≈ are worked out from the molar mass of the structure shown. Active and inactive are the calls of the source. The calls are words filed in the database; no cut-off is given here.

Tests used:
Staphylococcus aureus [1] = assay: Antibacterial activity against methicillin-resistant Staphylococcus aureus isolate 620 assessed as bacterial growth inhibition measured after 18 hrs by CLSI protocol based two-fold serial microdilution method; type: functional; settings: isolate 620, 18 h
[2] = test system: Staphylococcus epidermidis; assay: Antibacterial activity against methicillin-resistant Staphylococcus epidermidis isolate 654 assessed as bacterial growth inhibition measured after 18 hrs by CLSI protocol based two-fold serial microdilution method; type: functional; settings: isolate 654, 18 h
[3] = Genotoxicity in rec-positive Bacillus subtilis H17 assessed as diameter of inhibition zone at 256 ug measured after 24 hrs by rec-assay; type: toxicity; settings: in vivo
Staphylococcus aureus [4] = assay: Antibacterial activity against methicillin-resistant Staphylococcus aureus isolate 770 assessed as bacterial growth inhibition measured after 18 hrs by CLSI protocol based two-fold serial microdilution method; type: functional; settings: isolate 770, 18 h
Pseudomonas aeruginosa [5] = assay: Antibacterial activity against Pseudomonas aeruginosa ATCC 15442 assessed as bacterial growth inhibition measured after 18 hrs by CLSI protocol based two-fold serial microdilution method; type: functional, organism-based
[6] = test system: Staphylococcus epidermidis; assay: Antibacterial activity against methicillin-resistant Staphylococcus epidermidis isolate 603 assessed as bacterial growth inhibition measured after 18 hrs by CLSI protocol based two-fold serial microdilution method; type: functional; settings: isolate 603, 18 h
Staphylococcus aureus [7] = assay: Antibacterial activity against Staphylococcus aureus ATCC 29213 assessed as bacterial growth inhibition measured after 18 hrs by CLSI protocol based two-fold serial microdilution method; type: functional
[8] = test system: Staphylococcus epidermidis; assay: Inhibition of biofilm formation in Staphylococcus epidermidis ATCC 35984 at 1 to 8 ug/ml measured after 24 hrs by crystal violet staining based assay; type: functional, organism-based
Staphylococcus aureus [9] = assay: Antibacterial activity against methicillin-resistant Staphylococcus aureus isolate 583 assessed as bacterial growth inhibition measured after 18 hrs by CLSI protocol based two-fold serial microdilution method; type: functional; settings: isolate 583, 18 h
Staphylococcus aureus [10] = assay: Antibacterial activity against methicillin-resistant Staphylococcus aureus isolate 584 assessed as bacterial growth inhibition measured after 18 hrs by CLSI protocol based two-fold serial microdilution method; type: functional; settings: isolate 584, 18 h
[11] = test system: Staphylococcus epidermidis; assay: Antibacterial activity against methicillin-resistant Staphylococcus epidermidis isolate 574 assessed as bacterial growth inhibition measured after 18 hrs by CLSI protocol based two-fold serial microdilution method; type: functional; settings: isolate 574, 18 h
[12] = test system: Staphylococcus epidermidis; assay: Antibacterial activity against Staphylococcus epidermidis ATCC 35984 assessed as bacterial growth inhibition measured after 18 hrs by CLSI protocol based two-fold serial microdilution method; type: functional
[13] = test system: Staphylococcus epidermidis; assay: Antibacterial activity against methicillin-resistant Staphylococcus epidermidis isolate 660 assessed as bacterial growth inhibition measured after 18 hrs by CLSI protocol based two-fold serial microdilution method; type: functional; settings: isolate 660, 18 h
Staphylococcus aureus [14] = assay: Antibacterial activity against methicillin-resistant Staphylococcus aureus isolate 621 assessed as bacterial growth inhibition measured after 18 hrs by CLSI protocol based two-fold serial microdilution method; type: functional; settings: isolate 621, 18 h
[15] = test system: Staphylococcus epidermidis; assay: Antibacterial activity against methicillin-resistant Staphylococcus epidermidis isolate 610 assessed as bacterial growth inhibition measured after 18 hrs by CLSI protocol based two-fold serial microdilution method; type: functional; settings: isolate 610, 18 h
Enterococcus hirae = assay: Antibacterial activity against Enterococcus hirae ATCC 10541 assessed as bacterial growth inhibition measured after 18 hrs by CLSI protocol based two-fold serial microdilution method; type: functional
Staphylococcus aureus [16] = assay: Antibacterial activity against methicillin-resistant Staphylococcus aureus isolate 612 assessed as bacterial growth inhibition measured after 18 hrs by CLSI protocol based two-fold serial microdilution method; type: functional; settings: isolate 612, 18 h
Staphylococcus aureus [17] = assay: Antibacterial activity against Staphylococcus aureus NCTC 4163 assessed as bacterial growth inhibition measured after 18 hrs by CLSI protocol based two-fold serial microdilution method; type: functional
[18] = test system: Staphylococcus epidermidis; assay: Antibacterial activity against methicillin-resistant Staphylococcus epidermidis isolate 609 assessed as bacterial growth inhibition measured after 18 hrs by CLSI protocol based two-fold serial microdilution method; type: functional; settings: isolate 609, 18 h
[19] = test system: Staphylococcus epidermidis; assay: Antibacterial activity against methicillin-resistant Staphylococcus epidermidis isolate 602 assessed as bacterial growth inhibition measured after 18 hrs by CLSI protocol based two-fold serial microdilution method; type: functional; settings: isolate 602, 18 h
[20] = test system: Staphylococcus epidermidis; assay: Antibacterial activity against Staphylococcus epidermidis ATCC 12228 assessed as bacterial growth inhibition measured after 18 hrs by CLSI protocol based two-fold serial microdilution method; type: functional
Escherichia coli [21] = assay: Antibacterial activity against Escherichia coli NCTC 8196 assessed as bacterial growth inhibition measured after 18 hrs by CLSI protocol based two-fold serial microdilution method; type: functional, organism-based
[22] = Genotoxicity in rec negative Bacillus subtilis M45 assessed as diameter of inhibition zone at 256 ug measured after 24 hrs by rec-assay; type: toxicity; settings: in vivo
Pseudomonas aeruginosa [23] = assay: Antibacterial activity against Pseudomonas aeruginosa ATCC 27853 assessed as bacterial growth inhibition measured after 18 hrs by CLSI protocol based two-fold serial microdilution method; type: functional, organism-based
Micrococcus luteus = assay: Antibacterial activity against Micrococcus luteus ATCC 9341 assessed as bacterial growth inhibition measured after 18 hrs by CLSI protocol based two-fold serial microdilution method; type: functional
Escherichia coli [24] = assay: Antibacterial activity against Escherichia coli ATCC 25922 assessed as bacterial growth inhibition measured after 18 hrs by CLSI protocol based two-fold serial microdilution method; type: functional, organism-based
[25] = test system: Staphylococcus epidermidis; assay: Inhibition of biofilm formation in Staphylococcus epidermidis ATCC 12228 at 1 to 8 ug/ml measured after 24 hrs by crystal violet staining based assay; type: functional, organism-based
Staphylococcus aureus [26] = assay: Antibacterial activity against Staphylococcus aureus ATCC 6358 assessed as bacterial growth inhibition measured after 18 hrs by CLSI protocol based two-fold serial microdilution method; type: functional
Staphylococcus aureus [27] = assay: Antibacterial activity against Staphylococcus aureus ATCC 25923 assessed as bacterial growth inhibition measured after 18 hrs by CLSI protocol based two-fold serial microdilution method; type: functional
Staphylococcus aureus [28] = assay: Antibacterial activity against methicillin-resistant Staphylococcus aureus isolate 750 assessed as bacterial growth inhibition measured after 18 hrs by CLSI protocol based two-fold serial microdilution method; type: functional; settings: isolate 750, 18 h

| SMILES | MIC (Staphylococcus aureus [1]) [µM] | MIC [2] [µM] | diameter of the inhibition zone (DIZ) [3] [mm] | MIC (Staphylococcus aureus [4]) [µM] | Activity (Pseudomonas aeruginosa [5]) | MIC [6] [µM] | Activity (Staphylococcus aureus [7]) | inhibition [8] | MIC (Staphylococcus aureus [9]) [µM] | MIC (Staphylococcus aureus [10]) [µM] | MIC [11] [µM] | Activity [12] | MIC [13] [µM] | MIC (Staphylococcus aureus [14]) [µM] | MIC [15] [µM] | Activity (Enterococcus hirae) | MIC (Staphylococcus aureus [16]) [µM] | Activity (Staphylococcus aureus [17]) | MIC [18] [µM] | MIC [19] [µM] | other results |
| --- | --- | --- | --- | --- | --- | --- | --- | --- | --- | --- | --- | --- | --- | --- | --- | --- | --- | --- | --- | --- | --- |
| CC[C@@H](C(=O)[C@@H](C)[C@@H](O)[C@H](C)[C@@H]1O[C@@H]([C@@H](CC)C(=O)ONC(=O)c2ccccc2)CC[C@@H]1C)[C@H]1O[C@]2(C=CC(=O)[C@]3(CC[C@@](C)([C@H]4CC[C@](O)(CC)[C@H](C)O4)O3)O2)[C@H](C)C[C@@H]1C | 18.4 (≈ 16 µg/mL) | 73.7 (≈ 64 µg/mL) | 20 | 73.7 (≈ 64 µg/mL) | inactive | 4.61 (≈ 4 µg/mL) | Active | Active | 36.9 (≈ 32 µg/mL) | 36.9 (≈ 32 µg/mL) | 2.3 (≈ 2 µg/mL) | Active | 73.7 (≈ 64 µg/mL) | 4.61 (≈ 4 µg/mL) | 18.4 (≈ 16 µg/mL) | Active | 18.4 (≈ 16 µg/mL) | Active | 9.22 (≈ 8 µg/mL) | 4.61 (≈ 4 µg/mL) | Activity [20]: Active; Activity (Escherichia coli [21]): inactive; diameter of the inhibition zone (DIZ) [22]: 23 mm; Activity (Pseudomonas aeruginosa [23]): inactive; Activity (Micrococcus luteus): Active; Activity (Escherichia coli [24]): inactive; inhibition [25]: Active; Activity (Staphylococcus aureus [26]): Active; Activity (Staphylococcus aureus [27]): Active; MIC (Staphylococcus aureus [28]): 18.4 µM (≈ 16 µg/mL) |
| CC[C@@H](C(=O)[C@@H](C)[C@@H](O)[C@H](C)[C@@H]1O[C@@H]([C@@H](CC)C(=O)ONC(=O)c2ccccc2O)CC[C@@H]1C)[C@H]1O[C@]2(C=CC(=O)[C@]3(CC[C@@](C)([C@H]4CC[C@](O)(CC)[C@H](C)O4)O3)O2)[C@H](C)C[C@@H]1C | 4.52 (≈ 4 µg/mL) | 72.4 (≈ 64 µg/mL) | 17 | 72.4 (≈ 64 µg/mL) | inactive | 2.26 (≈ 2 µg/mL) | Active | Active | 36.2 (≈ 32 µg/mL) | 72.4 (≈ 64 µg/mL) | 2.26 (≈ 2 µg/mL) | Active | 72.4 (≈ 64 µg/mL) | 4.52 (≈ 4 µg/mL) | 4.52 (≈ 4 µg/mL) | Active | 4.52 (≈ 4 µg/mL) | Active | 2.26 (≈ 2 µg/mL) | 4.52 (≈ 4 µg/mL) | Activity [20]: Active; Activity (Escherichia coli [21]): inactive; diameter of the inhibition zone (DIZ) [22]: 19 mm; Activity (Pseudomonas aeruginosa [23]): inactive; Activity (Micrococcus luteus): Active; Activity (Escherichia coli [24]): inactive; inhibition [25]: Active; Activity (Staphylococcus aureus [26]): Active; Activity (Staphylococcus aureus [27]): Active; MIC (Staphylococcus aureus [28]): 4.52 µM (≈ 4 µg/mL) |
